In brackets after ≈: the same amount, converted by molar mass. Activity calls are given as the source filed them. The rule behind the calls is not given here.
biological target: T1, Myeloperoxidase (Homo sapiens) (UniProt P05164); test: Irreversible inhibition of myeloperoxidase (unknown origin) at 1000 fold dilution; conditions: not given
T1 sequence (whole entry): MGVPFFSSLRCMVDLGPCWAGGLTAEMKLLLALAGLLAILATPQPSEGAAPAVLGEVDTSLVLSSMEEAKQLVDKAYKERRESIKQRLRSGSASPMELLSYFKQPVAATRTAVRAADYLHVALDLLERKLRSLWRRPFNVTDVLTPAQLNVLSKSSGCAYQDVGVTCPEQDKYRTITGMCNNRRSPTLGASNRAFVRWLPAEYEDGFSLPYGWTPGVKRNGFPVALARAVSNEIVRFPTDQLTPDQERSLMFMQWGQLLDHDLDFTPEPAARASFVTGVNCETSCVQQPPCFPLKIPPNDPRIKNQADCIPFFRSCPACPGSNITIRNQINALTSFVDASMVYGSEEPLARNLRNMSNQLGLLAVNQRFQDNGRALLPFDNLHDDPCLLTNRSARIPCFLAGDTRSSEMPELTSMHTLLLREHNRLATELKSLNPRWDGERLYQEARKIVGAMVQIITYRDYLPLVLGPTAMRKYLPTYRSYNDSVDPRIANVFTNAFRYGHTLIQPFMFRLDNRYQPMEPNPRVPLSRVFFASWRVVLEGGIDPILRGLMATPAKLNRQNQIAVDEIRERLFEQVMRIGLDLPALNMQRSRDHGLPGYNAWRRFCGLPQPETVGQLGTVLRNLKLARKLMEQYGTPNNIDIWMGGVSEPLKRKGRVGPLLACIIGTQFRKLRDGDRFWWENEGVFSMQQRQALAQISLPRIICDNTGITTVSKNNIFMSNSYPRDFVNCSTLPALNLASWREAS

inhibition	SMILES
Active	Nc1ncnc2c1c(-c1ccc3cc[nH]c3c1)cn2-c1ccc(OCCNCCO)cc1

biological target: T2, Thyroid peroxidase (Homo sapiens) (UniProt P07202); test: Irreversible inhibition of thyroid peroxidase (unknown origin) at 1000 fold dilution; conditions: not given
T2 sequence (whole entry): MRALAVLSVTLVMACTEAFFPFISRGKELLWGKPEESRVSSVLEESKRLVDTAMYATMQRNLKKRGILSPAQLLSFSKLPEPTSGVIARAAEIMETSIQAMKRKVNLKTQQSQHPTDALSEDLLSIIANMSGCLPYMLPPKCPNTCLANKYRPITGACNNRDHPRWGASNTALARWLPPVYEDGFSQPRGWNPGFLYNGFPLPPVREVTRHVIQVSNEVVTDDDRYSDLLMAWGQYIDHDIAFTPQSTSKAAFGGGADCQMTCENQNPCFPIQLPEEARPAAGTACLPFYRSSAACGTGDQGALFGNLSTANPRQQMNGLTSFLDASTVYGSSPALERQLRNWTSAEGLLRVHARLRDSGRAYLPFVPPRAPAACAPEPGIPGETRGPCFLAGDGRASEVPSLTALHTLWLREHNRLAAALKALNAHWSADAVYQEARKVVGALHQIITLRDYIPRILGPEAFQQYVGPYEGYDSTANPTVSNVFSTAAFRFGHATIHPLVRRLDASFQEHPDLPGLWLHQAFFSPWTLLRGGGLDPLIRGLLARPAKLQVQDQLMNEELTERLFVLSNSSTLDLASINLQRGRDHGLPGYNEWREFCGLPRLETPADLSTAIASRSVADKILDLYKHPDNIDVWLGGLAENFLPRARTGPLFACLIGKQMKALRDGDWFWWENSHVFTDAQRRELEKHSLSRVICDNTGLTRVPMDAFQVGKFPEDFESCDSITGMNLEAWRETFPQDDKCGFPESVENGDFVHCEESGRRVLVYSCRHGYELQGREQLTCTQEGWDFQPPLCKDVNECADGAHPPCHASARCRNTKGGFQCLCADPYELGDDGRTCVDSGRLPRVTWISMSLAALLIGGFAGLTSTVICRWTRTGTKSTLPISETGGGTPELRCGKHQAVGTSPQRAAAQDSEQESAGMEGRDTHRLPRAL

inhibition	SMILES
inactive	Nc1ncnc2c1c(-c1ccc3cc[nH]c3c1)cn2-c1ccc(OCCNCCO)cc1

tested on: Armoracia rusticana; test: Irreversible inhibition of horseradish peroxidase at 1000 fold dilution; conditions: not given

inhibition	SMILES
inactive	Nc1ncnc2c1c(-c1ccc3cc[nH]c3c1)cn2-c1ccc(OCCNCCO)cc1

biological target: T1, Myeloperoxidase (Homo sapiens); test: Irreversible inhibition of human myeloperoxidase assessed as residual activity using H2O2 as substrate at 200 fold dilution and measured after 72 hrs by dialysis method; conditions: not given

Activity [%]	SMILES
> 95	Nc1ncnc2c1c(-c1ccc3cc[nH]c3c1)cn2-c1ccc(OCCNCCO)cc1

biological target: T3, Myeloperoxidase (Homo sapiens, UniProt P05164); test: Inhibition of myeloperoxidase (unknown origin); conditions: not given
T3 sequence (P05164 whole entry): T1 sequence (whole entry)

IC50 [nM]	SMILES
30	NCc1ccc(-n2cc(-c3ccc4cc[nH]c4c3)c(C(F)(F)F)n2)cc1
2000	NC(=O)Cn1cc(-c2ccc3cc[nH]c3c2)c(C(F)(F)F)n1
220	Nc1ncnc2c1c(-c1ccc3cc[nH]c3c1)cn2-c1ccc(OCCNCCO)cc1

biological target: T3, Myeloperoxidase; test: Inhibition of human plasma myeloperoxidase; conditions: not given

IC50 [nM]	SMILES
360	NCc1ccc(-n2cc(-c3ccc4cc[nH]c4c3)c(C(F)(F)F)n2)cc1

biological target: T1, Myeloperoxidase (Homo sapiens); test: Inhibition of myeloperoxidase (unknown origin) assessed as ratio of Kinact to Ki; conditions: not given

Ratio [M⁻¹ s⁻¹]	SMILES
430000	NCc1ccc(-n2cc(-c3ccc4cc[nH]c4c3)c(C(F)(F)F)n2)cc1
23000	Nc1ncnc2c1c(-c1ccc3cc[nH]c3c1)cn2-c1ccc(OCCNCCO)cc1

biological target: T1, Myeloperoxidase (Homo sapiens); test: Inhibition of myeloperoxidase (unknown origin) assessed as partition ratio by Amplex red based fluorescence assay; conditions: not given

Ratio	SMILES
0.4	NCc1ccc(-n2cc(-c3ccc4cc[nH]c4c3)c(C(F)(F)F)n2)cc1
> 200	NC(=O)Cn1cc(-c2ccc3cc[nH]c3c2)c(C(F)(F)F)n1
141	Nc1ncnc2c1c(-c1ccc3cc[nH]c3c1)cn2-c1ccc(OCCNCCO)cc1

biological target: T4, Thyroid peroxidase (Homo sapiens, UniProt P07202); test: Inhibition of thyroid peroxidase (unknown origin); conditions: not given
T4 sequence (P07202 whole entry): T2 sequence (whole entry)

IC50 [nM]	SMILES
> 30000	NCc1ccc(-n2cc(-c3ccc4cc[nH]c4c3)c(C(F)(F)F)n2)cc1
> 30000	NC(=O)Cn1cc(-c2ccc3cc[nH]c3c2)c(C(F)(F)F)n1
30000	Nc1ncnc2c1c(-c1ccc3cc[nH]c3c1)cn2-c1ccc(OCCNCCO)cc1

tested on: not listed separately; test: Solubility of the compound at pH 6.8; format: physicochemical; conditions: buffer

solubility [µM]	SMILES
62 (≈ 22.1 µg/mL)	NCc1ccc(-n2cc(-c3ccc4cc[nH]c4c3)c(C(F)(F)F)n2)cc1
46 (≈ 19.7 µg/mL)	Nc1ncnc2c1c(-c1ccc3cc[nH]c3c1)cn2-c1ccc(OCCNCCO)cc1

biological target: Voltage-gated inwardly rectifying potassium channel KCNH2 (Homo sapiens, UniProt Q12809); test: Inhibition of human ERG; conditions: not given
Sequence (Q12809 whole entry): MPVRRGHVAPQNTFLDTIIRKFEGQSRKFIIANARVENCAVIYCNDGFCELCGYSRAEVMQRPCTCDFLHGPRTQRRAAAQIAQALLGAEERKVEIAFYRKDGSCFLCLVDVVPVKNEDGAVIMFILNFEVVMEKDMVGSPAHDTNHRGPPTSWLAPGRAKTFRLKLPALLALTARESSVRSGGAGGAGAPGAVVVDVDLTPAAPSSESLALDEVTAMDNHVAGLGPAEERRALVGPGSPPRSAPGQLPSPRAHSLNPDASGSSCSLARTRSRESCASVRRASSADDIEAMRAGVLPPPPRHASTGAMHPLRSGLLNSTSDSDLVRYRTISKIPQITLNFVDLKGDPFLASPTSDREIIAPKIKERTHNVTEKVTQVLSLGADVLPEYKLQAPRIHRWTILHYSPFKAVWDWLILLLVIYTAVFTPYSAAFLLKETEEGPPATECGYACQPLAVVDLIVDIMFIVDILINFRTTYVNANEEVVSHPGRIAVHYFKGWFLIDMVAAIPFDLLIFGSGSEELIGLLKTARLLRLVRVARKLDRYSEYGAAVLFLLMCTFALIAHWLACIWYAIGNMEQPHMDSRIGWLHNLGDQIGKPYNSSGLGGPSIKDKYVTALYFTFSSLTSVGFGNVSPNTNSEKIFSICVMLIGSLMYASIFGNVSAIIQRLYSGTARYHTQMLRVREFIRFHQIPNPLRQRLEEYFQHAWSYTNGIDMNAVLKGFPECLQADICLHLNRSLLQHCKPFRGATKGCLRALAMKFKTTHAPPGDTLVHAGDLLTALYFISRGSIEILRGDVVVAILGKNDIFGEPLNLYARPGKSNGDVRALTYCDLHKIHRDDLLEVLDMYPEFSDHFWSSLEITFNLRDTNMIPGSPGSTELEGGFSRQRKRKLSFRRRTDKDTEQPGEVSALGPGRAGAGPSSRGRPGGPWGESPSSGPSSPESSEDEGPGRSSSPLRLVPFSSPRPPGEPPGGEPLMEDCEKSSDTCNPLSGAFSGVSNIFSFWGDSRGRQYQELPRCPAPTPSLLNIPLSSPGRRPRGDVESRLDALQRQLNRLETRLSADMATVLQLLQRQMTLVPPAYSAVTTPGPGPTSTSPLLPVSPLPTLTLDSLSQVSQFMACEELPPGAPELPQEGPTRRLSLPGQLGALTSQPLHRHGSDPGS

SMILES	IC50 [nM]
NCc1ccc(-n2cc(-c3ccc4cc[nH]c4c3)c(C(F)(F)F)n2)cc1	4000
Nc1ncnc2c1c(-c1ccc3cc[nH]c3c1)cn2-c1ccc(OCCNCCO)cc1	2800

biological target: Cytochrome P450 3A4 (Homo sapiens, UniProt P08684); test: Inhibition of CYP3A4 (unknown origin); format: ADME; conditions: not given
Sequence (P08684 whole entry): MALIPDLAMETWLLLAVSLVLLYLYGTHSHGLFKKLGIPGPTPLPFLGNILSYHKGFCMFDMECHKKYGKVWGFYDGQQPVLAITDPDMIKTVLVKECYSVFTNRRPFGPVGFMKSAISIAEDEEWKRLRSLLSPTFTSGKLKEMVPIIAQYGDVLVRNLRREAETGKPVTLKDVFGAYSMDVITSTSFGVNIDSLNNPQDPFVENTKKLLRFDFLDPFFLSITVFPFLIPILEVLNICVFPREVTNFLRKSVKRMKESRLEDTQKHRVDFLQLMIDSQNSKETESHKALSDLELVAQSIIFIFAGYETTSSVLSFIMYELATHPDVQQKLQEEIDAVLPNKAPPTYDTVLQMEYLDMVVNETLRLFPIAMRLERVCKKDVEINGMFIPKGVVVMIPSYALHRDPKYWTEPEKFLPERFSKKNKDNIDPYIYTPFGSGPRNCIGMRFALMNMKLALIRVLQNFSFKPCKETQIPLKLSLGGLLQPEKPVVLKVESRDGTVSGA

IC [µM]	SMILES
3.8	NCc1ccc(-n2cc(-c3ccc4cc[nH]c4c3)c(C(F)(F)F)n2)cc1
> 50	Nc1ncnc2c1c(-c1ccc3cc[nH]c3c1)cn2-c1ccc(OCCNCCO)cc1

biological target: Cytochrome P450 2D6 (Homo sapiens, UniProt P10635); test: Inhibition of CYP2D6 (unknown origin); format: ADME; conditions: not given
Sequence (P10635 whole entry): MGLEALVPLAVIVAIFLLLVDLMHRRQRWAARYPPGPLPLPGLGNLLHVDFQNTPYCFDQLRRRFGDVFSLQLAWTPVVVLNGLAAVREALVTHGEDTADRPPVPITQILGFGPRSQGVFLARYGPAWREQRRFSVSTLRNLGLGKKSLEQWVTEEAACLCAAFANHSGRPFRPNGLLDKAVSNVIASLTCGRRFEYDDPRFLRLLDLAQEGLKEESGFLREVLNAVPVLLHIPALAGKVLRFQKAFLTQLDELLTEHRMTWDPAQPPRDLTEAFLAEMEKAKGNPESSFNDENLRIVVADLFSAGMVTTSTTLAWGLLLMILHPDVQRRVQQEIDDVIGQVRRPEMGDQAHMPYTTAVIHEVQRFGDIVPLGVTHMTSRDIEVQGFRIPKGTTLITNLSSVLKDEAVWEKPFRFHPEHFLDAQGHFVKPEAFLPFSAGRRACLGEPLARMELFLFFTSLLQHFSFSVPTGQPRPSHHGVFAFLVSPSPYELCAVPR

IC [µM]	SMILES
1.4	NCc1ccc(-n2cc(-c3ccc4cc[nH]c4c3)c(C(F)(F)F)n2)cc1
> 50	Nc1ncnc2c1c(-c1ccc3cc[nH]c3c1)cn2-c1ccc(OCCNCCO)cc1

— ChEMBL document CHEMBL4622882, “Discovery of a novel indole pharmacophore for the irreversible inhibition of myeloperoxidase (MPO)” (Bioorg Med Chem, 2020)
